Assay results published in ChEMBL document CHEMBL1143624, “1-(5-Chloro-2-alkoxyphenyl)-3-(5-cyanopyrazin-2-yl)ureas [correction of cyanopyrazi] as potent and selective inhibitors of Chk1 kinase: synthesis, preliminary SAR, and biological activities” (J Med Chem, 2005).

Tests used:
[1] = system: HeLa; assay: Anti-proliferative activity against HeLa cells; format: functional, cell-based; settings: Homo sapiens
[2] = system: HeLa; assay: Anti-proliferative activity against HeLa cells in the presence of 150 nM of doxorubicin; format: functional, cell-based; settings: Homo sapiens
[3] = Inhibition of Protein kinase A (PKA)
[4] = biological target: Protein kinase C delta type (Homo sapiens, UniProt Q05655); assay: Inhibition of Protein kinase C delta (PKCdelta)
Protein kinase C delta type, sequence (Q05655 whole entry): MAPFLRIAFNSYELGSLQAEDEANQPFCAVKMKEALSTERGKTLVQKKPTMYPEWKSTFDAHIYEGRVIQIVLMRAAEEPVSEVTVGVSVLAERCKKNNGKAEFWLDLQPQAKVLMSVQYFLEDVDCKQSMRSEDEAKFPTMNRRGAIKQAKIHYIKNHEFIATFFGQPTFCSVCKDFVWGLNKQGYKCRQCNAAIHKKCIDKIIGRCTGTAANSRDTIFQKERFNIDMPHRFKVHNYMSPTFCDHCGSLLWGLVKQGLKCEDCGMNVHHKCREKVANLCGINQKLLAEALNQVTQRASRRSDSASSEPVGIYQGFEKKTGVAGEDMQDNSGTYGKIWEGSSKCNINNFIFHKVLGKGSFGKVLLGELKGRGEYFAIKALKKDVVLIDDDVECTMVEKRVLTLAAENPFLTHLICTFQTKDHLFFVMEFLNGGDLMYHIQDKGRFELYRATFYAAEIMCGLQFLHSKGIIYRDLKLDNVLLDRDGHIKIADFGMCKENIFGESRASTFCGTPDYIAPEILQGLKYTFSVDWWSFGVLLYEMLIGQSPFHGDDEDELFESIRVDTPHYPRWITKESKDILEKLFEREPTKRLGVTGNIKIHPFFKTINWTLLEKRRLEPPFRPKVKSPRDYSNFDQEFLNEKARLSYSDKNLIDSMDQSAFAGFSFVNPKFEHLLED

[5] = biological target: T1, Aurora kinase A (Homo sapiens, UniProt O14965); assay: Inhibition of Aurora kinase A (Aur1)
T1 sequence (O14965 whole entry): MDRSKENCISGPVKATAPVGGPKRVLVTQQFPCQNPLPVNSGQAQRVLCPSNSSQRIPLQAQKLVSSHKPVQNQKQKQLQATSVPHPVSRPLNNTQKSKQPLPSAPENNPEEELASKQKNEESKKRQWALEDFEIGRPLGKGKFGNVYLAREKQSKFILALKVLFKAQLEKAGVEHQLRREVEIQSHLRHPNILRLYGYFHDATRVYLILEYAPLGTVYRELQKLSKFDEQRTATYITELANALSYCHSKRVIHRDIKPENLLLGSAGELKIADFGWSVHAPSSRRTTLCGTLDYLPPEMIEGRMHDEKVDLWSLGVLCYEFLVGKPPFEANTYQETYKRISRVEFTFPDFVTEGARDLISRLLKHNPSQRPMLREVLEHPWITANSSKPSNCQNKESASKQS

[6] = biological target: Cyclin-dependent kinase 1 (Homo sapiens, UniProt P06493); assay: Inhibition of Serine/threonine kinase Cdc2 (Cdc2)
Cyclin-dependent kinase 1, sequence (P06493 whole entry): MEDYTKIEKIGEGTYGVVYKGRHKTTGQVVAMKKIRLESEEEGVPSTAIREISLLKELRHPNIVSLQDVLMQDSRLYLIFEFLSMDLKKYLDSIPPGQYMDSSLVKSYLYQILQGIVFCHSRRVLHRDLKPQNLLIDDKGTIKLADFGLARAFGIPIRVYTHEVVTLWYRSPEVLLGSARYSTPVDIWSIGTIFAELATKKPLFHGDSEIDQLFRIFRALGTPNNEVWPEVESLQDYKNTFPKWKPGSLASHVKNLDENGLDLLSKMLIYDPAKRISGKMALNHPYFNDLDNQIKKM

[7] = biological target: T2, Serine/threonine-protein kinase Chk1 (Homo sapiens, UniProt O14757); assay: Inhibition of Serine/threonine-protein kinase Chk1
T2 sequence (O14757 whole entry): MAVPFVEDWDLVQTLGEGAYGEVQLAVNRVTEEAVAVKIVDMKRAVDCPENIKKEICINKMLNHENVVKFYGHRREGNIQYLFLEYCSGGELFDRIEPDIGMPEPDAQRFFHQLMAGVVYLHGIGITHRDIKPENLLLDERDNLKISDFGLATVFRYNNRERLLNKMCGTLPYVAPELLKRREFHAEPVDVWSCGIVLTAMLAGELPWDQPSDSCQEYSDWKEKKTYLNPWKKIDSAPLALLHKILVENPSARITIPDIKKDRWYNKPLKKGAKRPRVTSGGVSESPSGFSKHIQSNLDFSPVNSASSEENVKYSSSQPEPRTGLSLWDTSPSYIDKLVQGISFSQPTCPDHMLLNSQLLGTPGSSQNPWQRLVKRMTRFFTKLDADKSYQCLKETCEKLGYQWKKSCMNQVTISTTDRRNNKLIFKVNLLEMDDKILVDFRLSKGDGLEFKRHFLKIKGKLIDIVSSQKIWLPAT

[8] = biological target: RAC-alpha serine/threonine-protein kinase (Homo sapiens, UniProt P31749); assay: Inhibition of Protein kinase B, alpha (Akt1)
RAC-alpha serine/threonine-protein kinase, sequence (P31749 whole entry): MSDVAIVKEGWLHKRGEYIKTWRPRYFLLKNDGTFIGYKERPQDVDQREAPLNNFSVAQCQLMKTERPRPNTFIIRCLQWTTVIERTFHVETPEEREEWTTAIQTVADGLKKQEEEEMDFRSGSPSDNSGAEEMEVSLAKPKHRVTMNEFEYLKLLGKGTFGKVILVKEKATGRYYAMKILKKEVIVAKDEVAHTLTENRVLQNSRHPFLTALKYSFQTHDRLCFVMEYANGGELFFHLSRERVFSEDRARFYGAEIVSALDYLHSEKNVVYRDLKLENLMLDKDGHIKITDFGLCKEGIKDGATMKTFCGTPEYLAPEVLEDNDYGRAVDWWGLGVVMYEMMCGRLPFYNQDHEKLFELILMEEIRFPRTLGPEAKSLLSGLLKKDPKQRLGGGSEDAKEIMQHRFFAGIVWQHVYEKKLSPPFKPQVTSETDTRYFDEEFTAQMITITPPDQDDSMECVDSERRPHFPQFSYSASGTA

[9] = system: HeLa; assay: Ratio of antiproliferative activities (EC50) against HeLa Cells to that with 150 nM doxorubicin; format: functional, Homo sapiens
[10] = Inhibition of Protein kinase C gamma (PKCgamma)
[11] = biological target: MAP/microtubule affinity-regulating kinase 3 (Homo sapiens, UniProt P27448); assay: Inhibition of MAP/microtubule affinity-regulating kinase 3 (cTak1)
MAP/microtubule affinity-regulating kinase 3, sequence (P27448 whole entry): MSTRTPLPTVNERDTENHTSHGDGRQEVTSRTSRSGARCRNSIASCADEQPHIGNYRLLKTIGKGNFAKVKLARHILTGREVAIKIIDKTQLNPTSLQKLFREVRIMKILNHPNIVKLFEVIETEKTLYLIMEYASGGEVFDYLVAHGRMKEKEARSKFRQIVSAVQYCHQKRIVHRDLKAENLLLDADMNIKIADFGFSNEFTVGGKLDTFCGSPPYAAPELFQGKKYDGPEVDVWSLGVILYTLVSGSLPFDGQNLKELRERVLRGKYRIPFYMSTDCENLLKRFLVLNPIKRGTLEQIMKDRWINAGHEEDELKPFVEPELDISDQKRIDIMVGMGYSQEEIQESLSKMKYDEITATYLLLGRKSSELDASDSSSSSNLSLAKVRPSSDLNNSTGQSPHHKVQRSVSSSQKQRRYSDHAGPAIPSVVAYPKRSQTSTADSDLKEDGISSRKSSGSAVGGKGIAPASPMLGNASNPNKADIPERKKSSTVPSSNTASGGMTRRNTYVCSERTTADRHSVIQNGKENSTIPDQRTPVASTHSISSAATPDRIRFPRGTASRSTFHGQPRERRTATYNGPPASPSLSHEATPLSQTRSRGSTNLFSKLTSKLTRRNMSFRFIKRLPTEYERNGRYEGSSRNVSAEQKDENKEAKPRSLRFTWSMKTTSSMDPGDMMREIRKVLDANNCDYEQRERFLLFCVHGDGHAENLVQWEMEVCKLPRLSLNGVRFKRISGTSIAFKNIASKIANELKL

[12] = biological target: T3, Serine/threonine-protein kinase Sgk1 (Homo sapiens, UniProt O00141); assay: Inhibition of Serum/glucocorticoid regulated kinase (SGK)
T3 sequence (O00141 whole entry): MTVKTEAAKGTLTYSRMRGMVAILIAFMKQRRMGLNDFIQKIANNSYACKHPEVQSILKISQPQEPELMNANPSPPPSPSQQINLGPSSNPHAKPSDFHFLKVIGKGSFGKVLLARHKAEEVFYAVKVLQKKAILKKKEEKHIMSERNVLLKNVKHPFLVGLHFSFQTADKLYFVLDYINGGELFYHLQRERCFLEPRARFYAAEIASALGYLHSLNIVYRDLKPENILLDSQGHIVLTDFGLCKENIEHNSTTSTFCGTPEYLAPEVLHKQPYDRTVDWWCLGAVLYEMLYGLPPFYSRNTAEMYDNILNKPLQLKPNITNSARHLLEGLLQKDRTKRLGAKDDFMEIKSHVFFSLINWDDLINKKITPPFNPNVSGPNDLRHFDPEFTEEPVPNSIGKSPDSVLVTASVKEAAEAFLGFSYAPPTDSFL

[13] = biological target: Mitogen-activated protein kinase 1 (Homo sapiens, UniProt P28482); assay: Inhibition of Extracellular signal-regulated kinase 2 (ERK2)
Mitogen-activated protein kinase 1, sequence (P28482 whole entry): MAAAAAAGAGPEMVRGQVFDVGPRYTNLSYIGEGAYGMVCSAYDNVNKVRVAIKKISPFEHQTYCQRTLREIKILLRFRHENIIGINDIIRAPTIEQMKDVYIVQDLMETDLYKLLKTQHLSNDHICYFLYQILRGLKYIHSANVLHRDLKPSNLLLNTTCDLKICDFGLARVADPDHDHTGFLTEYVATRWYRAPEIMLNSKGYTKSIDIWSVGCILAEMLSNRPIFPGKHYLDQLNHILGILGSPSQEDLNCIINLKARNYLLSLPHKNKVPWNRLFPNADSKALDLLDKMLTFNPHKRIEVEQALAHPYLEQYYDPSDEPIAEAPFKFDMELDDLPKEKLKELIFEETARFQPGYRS

[14] = biological target: Serine/threonine-protein kinase Chk2 (Homo sapiens, UniProt O96017); assay: Inhibition of Serine/threonine-protein kinase Chk2
Serine/threonine-protein kinase Chk2, sequence (O96017 whole entry): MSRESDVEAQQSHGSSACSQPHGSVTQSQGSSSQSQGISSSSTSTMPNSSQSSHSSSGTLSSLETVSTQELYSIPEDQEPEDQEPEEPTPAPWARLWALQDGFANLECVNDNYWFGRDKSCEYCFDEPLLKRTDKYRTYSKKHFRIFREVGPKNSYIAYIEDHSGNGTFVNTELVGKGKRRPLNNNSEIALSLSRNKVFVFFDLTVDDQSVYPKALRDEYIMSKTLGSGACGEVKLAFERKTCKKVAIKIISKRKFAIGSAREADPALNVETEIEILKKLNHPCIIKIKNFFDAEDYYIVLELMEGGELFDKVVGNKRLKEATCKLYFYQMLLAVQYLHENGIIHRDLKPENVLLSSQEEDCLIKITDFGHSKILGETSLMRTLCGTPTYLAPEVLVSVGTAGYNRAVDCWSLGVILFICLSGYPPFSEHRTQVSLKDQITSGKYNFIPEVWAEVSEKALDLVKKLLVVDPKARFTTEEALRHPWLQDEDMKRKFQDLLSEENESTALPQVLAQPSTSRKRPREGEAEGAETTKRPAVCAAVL

[15] = system: SW-620; assay: Concentration required to inhibit growth of SW620 (human colon cancer) cells in the presence of 10 uM of Compound 2e; format: functional, cell-based
[16] = system: SW-620; assay: Concentration required to inhibit growth of SW620 (human colon cancer) cells; format: functional, cell-based

SMILES	EC50 [1] [µM]	EC50 [2] [µM]	IC50 [3] [µM]	IC50 [4] [µM]	IC50 [5] [µM]	IC50 [6] [µM]	IC50 [7] [µM]	IC50 [8] [µM]	IC50 [10] [µM]	IC50 [11] [µM]	IC50 [12] [µM]	IC50 [13] [µM]	IC50 [14] [µM]	Ratio [9]	EC50 [15] [µM]	EC50 [16] [µM]
CC1(COc2ccc(Cl)cc2NC(=O)Nc2cnc(C#N)cn2)COC1	> 59	2.6	> 50	> 50	> 10	> 50	0.007	9.21	> 50	> 10	> 50	> 50		>22		
N#Cc1cnc(NC(=O)Nc2cc(Cl)ccc2OC2CCOC2)cn1 (stereo unspecified)	18.7	5					0.003							3.6		
CC(CN(C)C)Oc1ccc(Cl)cc1NC(=O)Nc1cnc(C#N)cn1 (stereo unspecified)	1.5	0.4	> 50	50	3.23	> 50	0.008	> 50	50	1.51	> 50	> 50	2.8	3.7		
CC[C@@]1(O)C(=O)OCc2c1cc1n(c2=O)Cc2cc3ccccc3nc2-1 [CAMPTOTHECIN]															0.00015	0.0012

More lines, main results first:

EC50 [1] [µM]	EC50 [2] [µM]	IC50 [3] [µM]	IC50 [4] [µM]	IC50 [5] [µM]	IC50 [6] [µM]	IC50 [7] [µM]	IC50 [8] [µM]	IC50 [10] [µM]	IC50 [11] [µM]	IC50 [12] [µM]	IC50 [13] [µM]	IC50 [14] [µM]	SMILES	Ratio [9]	EC50 [15] [µM]	EC50 [16] [µM]
10.4	10					0.01							CN1CCC(Oc2ccc(Cl)cc2NC(=O)Nc2cnc(C#N)cn2)CC1	1		
> 59	37					0.005							N#Cc1cnc(NC(=O)Nc2cc(Cl)ccc2OC2CCOCC2)cn1	>1		
